{
  "source": "patent US9908912B2",
  "about": "“Triclosan derivatives and uses thereof” (priority 2012, dated 2018)",
  "key": {"E. hermanii ATCC 33650": {"test_system": "E. hermanii ATCC 33650", "test": "MIC in Nutrient Broth No. 2", "assay_type": "cell-based, Escherichia hermanii", "conditions": "Atlantibacter hermannii, ATCC33650; Nutrient Broth No. 2, 24 h, 37° C.; inducer not specified; read-out: MIC", "experimental": "(§1) Bacteria species as indicated in Table 1 were incubated for approximately 24 hours at 37° C.\n(§2) The tests were repeated with the addition of inducers. Methyl glycoside was the main inducer used, but other suitable inducers include isopropyl-β-D-thiogalactopyranoside, p-nitrophenyl-α-L-arabinopyranoside and p-nitrophenyl-β-D-xylopyranoside. Concentration of inducer in all cases was 100 μg/ml."}, "[1]": {"test_system": "Kleb. pneumoniae ATCC 10031", "test": "MIC in Nutrient Broth No. 2", "assay_type": "cell-based, Klebsiella pneumoniae", "conditions": "Klebsiella pneumoniae, ATCC10031; Nutrient Broth No. 2, 24 h, 37° C.; inducer not specified; read-out: MIC", "experimental": "as §1, §2"}, "Staph. aureus": {"test_system": "Staph. aureus", "test": "MIC in Nutrient Broth No. 2", "assay_type": "cell-based, Staphylococcus aureus", "conditions": "Staphylococcus aureus; 8 strains; Nutrient Broth No. 2, 24 h, 37° C.; inducer not specified; read-out: MIC", "experimental": "as §1, §2"}, "[2]": {"test_system": "Staph. haemolyticus OCC 2223", "test": "MIC in Nutrient Broth No. 2", "assay_type": "cell-based, Staphylococcus haemolyticus", "conditions": "Staphylococcus haemolyticus, OCC2223; Nutrient Broth No. 2, 24 h, 37° C.; inducer not specified; read-out: MIC", "experimental": "as §1, §2"}, "[3]": {"test_system": "Staph. saprophyticus ATCC 15305", "test": "MIC in Nutrient Broth No. 2", "assay_type": "cell-based, Staphylococcus saprophyticus", "conditions": "Staphylococcus saprophyticus, ATCC15305; Nutrient Broth No. 2, 24 h, 37° C.; inducer not specified; read-out: MIC", "experimental": "as §1, §2"}, "[4]": {"test_system": "Strep. pneumoniae ATCC 6305", "test": "MIC in Nutrient Broth No. 2", "assay_type": "cell-based, Streptococcus pneumoniae", "conditions": "Streptococcus pneumoniae, ATCC6305; Nutrient Broth No. 2, 24 h, 37° C.; inducer not specified; read-out: MIC", "experimental": "as §1, §2"}, "Ent. cloacae ATCC 13047": {"test_system": "Ent. cloacae ATCC 13047", "test": "MIC in Nutrient Broth No. 2", "assay_type": "cell-based, Enterobacter cloacae", "conditions": "Enterobacter cloacae, ATCC13047; Nutrient Broth No. 2, 24 h, 37° C.; inducer not specified; read-out: MIC", "experimental": "as §1, §2"}, "[5]": {"test_system": "Strep. pyogenes ATCC 19615", "test": "MIC in Nutrient Broth No. 2", "assay_type": "cell-based, Streptococcus pyogenes", "conditions": "Streptococcus pyogenes, ATCC19615; Nutrient Broth No. 2, 24 h, 37° C.; inducer not specified; read-out: MIC", "experimental": "as §1, §2"}, "Staph. epidermidis": {"test_system": "Staph. epidermidis", "test": "MIC in Nutrient Broth No. 2", "assay_type": "cell-based, Staphylococcus epidermidis", "conditions": "Staphylococcus epidermidis; 3 strains; Nutrient Broth No. 2, 24 h, 37° C.; inducer not specified; read-out: MIC", "experimental": "as §1, §2"}, "Strep. viridans OCC 234": {"test_system": "Strep. viridans OCC 234", "test": "MIC in Nutrient Broth No. 2", "assay_type": "cell-based, Streptococcus viridans", "conditions": "Streptococcus viridans, OCC234; Nutrient Broth No. 2, 24 h, 37° C.; inducer not specified; read-out: MIC", "experimental": "as §1, §2"}, "[6]": {"test_system": "Kleb. aerogenes NCTC 88167", "test": "MIC in Nutrient Broth No. 2", "assay_type": "cell-based, Klebsiella aerogenes", "conditions": "Klebsiella aerogenes, NCTC88167; Nutrient Broth No. 2, 24 h, 37° C.; inducer not specified; read-out: MIC", "experimental": "as §1, §2"}, "[7]": {"test_system": "Strep. agalactiae OCC 182", "test": "MIC in Nutrient Broth No. 2", "assay_type": "cell-based, Streptococcus agalactiae", "conditions": "Streptococcus agalactiae, OCC182; Nutrient Broth No. 2, 24 h, 37° C.; inducer not specified; read-out: MIC", "experimental": "as §1, §2"}, "[8]": {"test_system": "Citrobacter freundii OCC 851", "test": "MIC in Nutrient Broth No. 2", "assay_type": "cell-based", "conditions": "Citrobacter freundii, OCC851; Nutrient Broth No. 2, 24 h, 37° C.; inducer not specified; read-out: MIC", "experimental": "as §1, §2"}, "[9]": {"test_system": "Enterococcus faecalis ATCC 29212", "test": "MIC in Nutrient Broth No. 2", "assay_type": "cell-based", "conditions": "Enterococcus faecalis, ATCC29212, 24 h", "experimental": "as §1, §2"}, "[10]": {"test_system": "Bacillus subtilis NCTC 10073", "test": "MIC in Nutrient Broth No. 2", "assay_type": "cell-based", "conditions": "Bacillus subtilis, NCTC10073; Nutrient Broth No. 2, 24 h, 37° C.; inducer not specified; read-out: MIC", "experimental": "as §1, §2"}, "Hafnia alvei ATCC 13337": {"test_system": "Hafnia alvei ATCC 13337", "test": "MIC in Nutrient Broth No. 2", "assay_type": "cell-based", "conditions": "Hafnia alvei, ATCC13337; Nutrient Broth No. 2, 24 h, 37° C.; inducer not specified; read-out: MIC", "experimental": "as §1, §2"}, "Proteus vulgaris OCC 195": {"test_system": "Proteus vulgaris OCC 195", "test": "MIC in Nutrient Broth No. 2", "assay_type": "cell-based", "conditions": "Proteus vulgaris, OCC195; Nutrient Broth No. 2, 24 h, 37° C.; inducer not specified; read-out: MIC", "experimental": "as §1, §2"}, "[11]": {"test_system": "Ps. Aeruginosa ATCC 27853", "test": "MIC in Nutrient Broth No. 2", "assay_type": "cell-based", "conditions": "Pseudomonas aeruginosa, ATCC27853; Nutrient Broth No. 2, 24 h, 37° C.; inducer not specified; read-out: MIC", "experimental": "as §1, §2"}, "[12]": {"test_system": "Enterococcus faecium ATCC 19434", "test": "MIC in Nutrient Broth No. 2", "assay_type": "cell-based", "conditions": "Enterococcus faecium, ATCC19434; Nutrient Broth No. 2, 24 h, 37° C.; inducer not specified; read-out: MIC", "experimental": "as §1, §2"}, "[13]": {"test_system": "Aeromonas hydrophila OCC 778", "test": "MIC in Nutrient Broth No. 2", "assay_type": "cell-based", "conditions": "Aeromonas hydrophila, OCC778; Nutrient Broth No. 2, 24 h, 37° C.; inducer not specified; read-out: MIC", "experimental": "as §1, §2"}, "[14]": {"test_system": "Serratia marcescens OCC 217", "test": "MIC in Nutrient Broth No. 2", "assay_type": "cell-based", "conditions": "Serratia marcescens, OCC217; Nutrient Broth No. 2, 24 h, 37° C.; inducer not specified; read-out: MIC", "experimental": "as §1, §2"}, "[15]": {"test_system": "Enterobacter aerogenes ATCC 13048", "test": "MIC in Nutrient Broth No. 2", "assay_type": "cell-based", "conditions": "Klebsiella aerogenes, ATCC13048; Nutrient Broth No. 2, 24 h, 37° C.; inducer not specified; read-out: MIC", "experimental": "as §1, §2"}, "Escherichia coli": {"test_system": "Escherichia coli", "test": "MIC in Nutrient Broth No. 2", "assay_type": "cell-based", "conditions": "Escherichia coli; 8 strains; Nutrient Broth No. 2, 24 h, 37° C.; inducer not specified; read-out: MIC", "experimental": "as §1, §2"}, "Salmonella": {"test_system": "Salmonella", "test": "MIC in Nutrient Broth No. 2", "assay_type": "cell-based", "conditions": "Salmonella; 11 strains; Nutrient Broth No. 2, 24 h, 37° C.; inducer not specified; read-out: MIC", "experimental": "as §1, §2"}, "[16]": {"test_system": "Bacillus cereus ATCC 14579", "test": "MIC in Nutrient Broth No. 2", "assay_type": "cell-based", "conditions": "Bacillus cereus, ATCC14579; Nutrient Broth No. 2, 24 h, 37° C.; inducer not specified; read-out: MIC", "experimental": "as §1, §2"}, "[17]": {"test_system": "Proteus mirabilis ATCC 12453", "test": "MIC in Nutrient Broth No. 2", "assay_type": "cell-based", "conditions": "Proteus mirabilis, ATCC12453; Nutrient Broth No. 2, 24 h, 37° C.; inducer not specified; read-out: MIC", "experimental": "as §1, §2"}, "[18]": {"test_system": "Bacteria species as indicated in Table 1", "test": "MIC in Nutrient Broth No. 2 (over organisms of Table 1)", "assay_type": "cell-based", "conditions": "Table 1 organisms", "experimental": "as §1, §2"}, "[19]": {"test_system": "Crono. sakazakii ATCC 29544", "test": "MIC in Nutrient Broth No. 2", "assay_type": "cell-based, Cronobacter sakazakii", "conditions": "Cronobacter sakazakii, ATCC29544; Nutrient Broth No. 2, 24 h, 37° C.; inducer not specified; read-out: MIC", "experimental": "as §1, §2"}},
  "data": [
    {"molecule": "Oc1cc(Cl)ccc1Oc1ccc(Cl)cc1Cl", "note": "[Triclosan, 5-chloro-2-(2,4-dichlorophenoxy)phenol]", "values": [
      {"measurement": "MIC", "setting": "E. hermanii ATCC 33650", "value": 0.5, "unit": "µg/mL"},
      {"measurement": "MIC", "setting": "[1]", "value": 0.1, "unit": "µg/mL"},
      {"measurement": "MIC", "setting": "Staph. aureus", "value": 0.01, "unit": "µg/mL"},
      {"measurement": "MIC", "setting": "[2]", "value": 0.01, "unit": "µg/mL"},
      {"measurement": "MIC", "setting": "[3]", "value": 0.01, "unit": "µg/mL"},
      {"measurement": "MIC", "setting": "[4]", "value": 1, "unit": "µg/mL"},
      {"measurement": "MIC", "setting": "Ent. cloacae ATCC 13047", "value": 0.5, "unit": "µg/mL"},
      {"measurement": "MIC", "setting": "[5]", "value": 1, "unit": "µg/mL"},
      {"measurement": "MIC", "setting": "Staph. epidermidis", "value": 0.01, "unit": "µg/mL"},
      {"measurement": "MIC", "setting": "Strep. viridans OCC 234", "value": 4, "unit": "µg/mL"},
      {"measurement": "MIC", "setting": "[6]", "value": 0.5, "unit": "µg/mL"},
      {"measurement": "MIC", "setting": "[7]", "value": 4, "unit": "µg/mL"},
      {"measurement": "MIC", "setting": "[8]", "value": 0.5, "unit": "µg/mL"},
      {"measurement": "MIC", "setting": "[9]", "value": 8, "unit": "µg/mL"},
      {"measurement": "MIC", "setting": "[10]", "value": 1, "unit": "µg/mL"},
      {"measurement": "MIC", "setting": "Hafnia alvei ATCC 13337", "value": 0.1, "unit": "µg/mL"},
      {"measurement": "MIC", "setting": "Proteus vulgaris OCC 195", "value": 0.5, "unit": "µg/mL"},
      {"measurement": "MIC", "setting": "[11]", "value": 32, "unit": "µg/mL"},
      {"measurement": "MIC", "setting": "[12]", "value": 4, "unit": "µg/mL"},
      {"measurement": "MIC", "setting": "[13]", "value": 8, "unit": "µg/mL"},
      {"measurement": "MIC", "setting": "[14]", "value": 64, "unit": "µg/mL"},
      {"measurement": "MIC", "setting": "[15]", "value": 0.5, "unit": "µg/mL"},
      {"measurement": "MIC", "setting": "Escherichia coli", "value": "0.1 to 0.5", "unit": "µg/mL"},
      {"measurement": "MIC", "setting": "Salmonella", "value": "0.5 to 1", "unit": "µg/mL"},
      {"measurement": "MIC", "setting": "[16]", "value": 2, "unit": "µg/mL"},
      {"measurement": "MIC", "setting": "[17]", "value": 0.5, "unit": "µg/mL"},
      {"measurement": "susceptibility of the organisms that were tested", "setting": "[18]", "value": "inhibited"},
      {"measurement": "MIC", "setting": "[19]", "value": 0.5, "unit": "µg/mL"}
    ]}
  ]
}
